Patent US20240109917A1 (ACTELION PHARMACEUTICALS LTD, priority 2020, published 2024)

How the values were obtained:
[1] = molecular target: His6-TEV-PDGFRβ (557-1016) (Homo sapiens (Human), UniProt P09619); experiment: PDGFRβ HTRF Assay; assay type: biochemical; settings: read-out: PDGFR HTRF IC50
How it was run: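 Human PDGFRβ (557-1016) pre-incubated with compound for 30 min at RT in pH 7.5 HEPES/MgCl2/EGTA/Brij-35/DTT buffer. Reaction started with ATP and TK-biotin peptide, run 3 h at RT, then quenched with EDTA-containing Eu-cryptate antibody/streptavidin-XL665. HTRF 665/620 nm ratio read after 60 min; percent inhibition relative to DMSO and 10 μM imatinib controls.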

[2] = molecular target: Tb-labeled inactive PDGFRβ (Homo sapiens (Human), UniProt P09619); experiment: PDGFRβ LanthaScreen Assay; assay type: binding; settings: read-out: PDGFR Lantha IC50
Chain of Tb-labeled inactive PDGFRβ (P09619 33-1106): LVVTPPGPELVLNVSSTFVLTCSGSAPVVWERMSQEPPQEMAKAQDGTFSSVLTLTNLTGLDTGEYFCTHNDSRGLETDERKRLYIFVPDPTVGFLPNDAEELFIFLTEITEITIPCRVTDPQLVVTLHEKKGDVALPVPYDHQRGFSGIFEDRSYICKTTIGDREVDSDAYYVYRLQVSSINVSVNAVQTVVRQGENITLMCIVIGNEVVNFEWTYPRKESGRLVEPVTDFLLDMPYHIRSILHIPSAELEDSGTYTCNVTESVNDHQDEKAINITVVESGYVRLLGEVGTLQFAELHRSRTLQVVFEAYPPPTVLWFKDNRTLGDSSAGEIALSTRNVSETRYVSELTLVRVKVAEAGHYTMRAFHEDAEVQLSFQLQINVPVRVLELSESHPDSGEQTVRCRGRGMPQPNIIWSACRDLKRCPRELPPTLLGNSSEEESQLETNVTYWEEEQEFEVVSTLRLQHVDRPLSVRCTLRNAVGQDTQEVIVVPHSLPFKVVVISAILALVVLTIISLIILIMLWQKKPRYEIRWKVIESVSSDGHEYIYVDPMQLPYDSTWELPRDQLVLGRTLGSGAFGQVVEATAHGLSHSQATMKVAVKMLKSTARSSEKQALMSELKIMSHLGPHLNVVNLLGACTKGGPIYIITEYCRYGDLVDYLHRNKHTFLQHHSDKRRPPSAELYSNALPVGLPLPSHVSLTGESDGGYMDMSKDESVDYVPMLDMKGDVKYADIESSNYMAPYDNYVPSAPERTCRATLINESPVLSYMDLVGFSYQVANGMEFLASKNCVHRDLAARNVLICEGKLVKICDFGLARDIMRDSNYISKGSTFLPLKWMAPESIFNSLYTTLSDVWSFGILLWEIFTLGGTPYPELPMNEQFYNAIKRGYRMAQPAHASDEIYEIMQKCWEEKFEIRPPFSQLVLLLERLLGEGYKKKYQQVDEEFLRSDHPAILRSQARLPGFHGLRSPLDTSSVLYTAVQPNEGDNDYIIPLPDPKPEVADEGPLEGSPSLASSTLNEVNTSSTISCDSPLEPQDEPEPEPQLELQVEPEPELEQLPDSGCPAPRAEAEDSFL

Chain of His6-TEV-PDGFRβ (557-1016) (P09619 557-1016): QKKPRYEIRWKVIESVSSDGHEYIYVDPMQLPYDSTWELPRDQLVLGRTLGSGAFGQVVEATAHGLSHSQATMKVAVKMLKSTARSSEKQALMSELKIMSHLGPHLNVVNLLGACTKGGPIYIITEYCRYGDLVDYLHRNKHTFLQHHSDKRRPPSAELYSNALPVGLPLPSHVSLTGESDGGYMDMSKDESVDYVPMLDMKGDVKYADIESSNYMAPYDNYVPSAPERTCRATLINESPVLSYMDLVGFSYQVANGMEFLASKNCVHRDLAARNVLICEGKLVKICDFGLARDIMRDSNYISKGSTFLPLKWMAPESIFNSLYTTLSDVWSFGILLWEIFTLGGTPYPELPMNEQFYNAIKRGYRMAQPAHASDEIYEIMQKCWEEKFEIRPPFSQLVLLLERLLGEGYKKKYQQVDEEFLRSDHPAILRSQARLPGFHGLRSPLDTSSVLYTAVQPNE

COCCn1cc(-c2cn3ncc(C(=O)Nc4cc(NC(=O)C[C@H]5CCCN5C(C)C)cnc4C)c3s2)cn1 [Example 485, (R)—N-(5-(2-(1-isopropylpyrrolidin-2-yl)acetamido)-2-methylpyridin-3-yl)-2-(1-(2-methoxyethyl)-1H-pyrazol-4-yl)pyrazolo[5,1-b]thiazole-7-carboxamide] showed an IC50 [1] of 0.8 nM and an IC50 [2] of 16.3 nM.

Compound Cc1ncc(C(=O)NCCN2CCCC23CCC3)cc1NC(=O)c1cnn2cc(-c3cnn(C)c3)sc12 [Example 3, N-(5-((2-(5-azaspiro[3.4]octan-5-yl)ethyl)carbamoyl)-2-methylpyridin-3-yl)-2-(1-methyl-1H-pyrazol-4-yl)pyrazolo[5,1-b]thiazole-7-carboxamide] has an IC50 [1] of 0.6 nM and an IC50 [2] of 4 nM.

For Cc1ncc(NC(=O)CN2CCCC23CC3)cc1NC(=O)c1cnn2cc(-c3cnn(CCO)c3)sc12 [Example 87, N-(5-(2-(4-azaspiro[2.4]heptan-4-yl)acetamido)-2-methylpyridin-3-yl)-2-(1-(2-hydroxyethyl)-1H-pyrazol-4-yl)pyrazolo[5,1-b]thiazole-7-carboxamide], the IC50 [1] was 0.4 nM and the IC50 [2] was 3.2 nM.

Compound Cc1ncc(NC(=O)CN2Cc3cccnc3C2)cc1NC(=O)c1cnn2cc(-c3cnn(C)c3)sc12 [Example 48, N-(5-(2-(5H-pyrrolo[3,4-b]pyridin-6 (7H)-yl)acetamido)-2-methylpyridin-3-yl)-2-(1-methyl-1H-pyrazol-4-yl)pyrazolo[5,1-b]thiazole-7-carboxamide] has an IC50 [1] of 1.4 nM and an IC50 [2] of 16.8 nM.

Work on Cc1ncc(NC(=O)CNC2CCC2)cc1NC(=O)c1cnn2cc(-c3cnn4c3OCCC4)sc12 [Example 494, N-(5-(2-(cyclobutylamino)acetamido)-2-methylpyridin-3-yl)-2-(6,7-dihydro-5H-pyrazolo[5,1-b][1,3]oxazin-3-yl)pyrazolo[5,1-b]thiazole-7-carboxamide] yielded an IC50 [1] of 0.4 nM and an IC50 [2] of 3.9 nM.

For Cc1ncc(NC(=O)CN2CCOC(C)(C)C2)cc1NC(=O)c1cnn2cc(-c3cnn(C)c3)sc12 [Example 67, N-(5-(2-(2,2-dimethylmorpholino)acetamido)-2-methylpyridin-3-yl)-2-(1-methyl-1H-pyrazol-4-yl)pyrazolo[5,1-b]thiazole-7-carboxamide], the IC50 [1] was 1 nM and the IC50 [2] was 5.7 nM.

In the case of Cc1ncc(NC(=O)CN2C3CCC2COC3)cc1NC(=O)c1cnn2cc(-c3cnn(C)c3)sc12 [Example 44, N-(5-(2-(3-oxa-8-azabicyclo[3.2.1]octan-8-yl)acetamido)-2-methylpyridin-3-yl)-2-(1-methyl-1H-pyrazol-4-yl)pyrazolo[5,1-b]thiazole-7-carboxamide], the IC50 [1] is reported as 1.3 nM and the IC50 [2] is reported as 11.6 nM.

For Cc1ncc(NC(=O)CCN2CC3CCC2CC3)cc1NC(=O)c1cnn2cc(-c3cnn(C)c3)sc12 [Example 43, N-(5-(3-(2-azabicyclo[2.2.2]octan-2-yl)propanamido)-2-methylpyridin-3-yl)-2-(1-methyl-1H-pyrazol-4-yl)pyrazolo[5,1-b]thiazole-7-carboxamide], the IC50 [1] was 0.23 nM and the IC50 [2] was 3.9 nM.

With Cc1ncc(NC(=O)CN2CCCCC23CC3)cc1NC(=O)c1cnn2cc(-c3cnn(CCO)c3)sc12 [Example 86, N-(5-(2-(4-azaspiro[2.5]octan-4-yl)acetamido)-2-methylpyridin-3-yl)-2-(1-(2-hydroxyethyl)-1H-pyrazol-4-yl)pyrazolo[5,1-b]thiazole-7-carboxamide] the IC50 [1] was 1.3 nM and the IC50 [2] was 7.3 nM.

Cc1ncc(NC(=O)CN2CCc3cnccc3C2)cc1NC(=O)c1cnn2cc(-c3cnn(C)c3)sc12 [Example 62, N-(5-(2-(3,4-dihydro-2,6-naphthyridin-2 (1H)-yl)acetamido)-2-methylpyridin-3-yl)-2-(1-methyl-1H-pyrazol-4-yl)pyrazolo[5,1-b]thiazole-7-carboxamide] was tested, and the IC50 [1] was 1.4 nM and the IC50 [2] was 17.6 nM.

Cc1ncc(NC(=O)CN2CCCC(F)(F)C2)cc1NC(=O)c1cnn2cc(-c3cnn(C)c3)sc12 [Example 49, N-(5-(2-(3,3-difluoropiperidin-1-yl)acetamido)-2-methylpyridin-3-yl)-2-(1-methyl-1H-pyrazol-4-yl)pyrazolo[5,1-b]thiazole-7-carboxamide] showed an IC50 [1] of 0.4 nM and an IC50 [2] of 2.1 nM.

COCCn1cc(-c2cn3ncc(C(=O)Nc4cc(NC(=O)CCN5CCC6(CC6)C5)cnc4C)c3s2)cn1 [Example 91, N-(5-(3-(5-azaspiro[2.4]heptan-5-yl)propanamido)-2-methylpyridin-3-yl)-2-(1-(2-methoxyethyl)-1H-pyrazol-4-yl)pyrazolo[5,1-b]thiazole-7-carboxamide] gave an IC50 [1] of 0.5 nM and an IC50 [2] of 13.2 nM.

COC1CCN(CC(=O)Nc2cnc(C)c(NC(=O)c3cnn4cc(-c5cnn(C)c5)sc34)c2)CC1 [Example 83, N-(5-(2-(4-methoxypiperidin-1-yl)acetamido)-2-methylpyridin-3-yl)-2-(1-methyl-1H-pyrazol-4-yl)pyrazolo[5,1-b]thiazole-7-carboxamide] gave an IC50 [1] of 2.3 nM and an IC50 [2] of 35 nM.

For Cc1ncc(NC(=O)CN2CCOC[C@@H]2C)cc1NC(=O)c1cnn2cc(-c3cnn(C)c3)sc12 [Example 74, (S)-2-(1-methyl-1H-pyrazol-4-yl)-N-(2-methyl-5-(2-(3-methylmorpholino)acetamido)pyridin-3-yl)pyrazolo[5,1-b]thiazole-7-carboxamide], the IC50 [1] was 1 nM and the IC50 [2] was 24.2 nM.

Compound Cc1ncc(NC(=O)CCN2CCCC2(C)C)cc1NC(=O)c1cnn2cc(-c3cnn(CCO)c3)sc12 [Example 88, N-(5-(3-(2,2-dimethylpyrrolidin-1-yl)propanamido)-2-methylpyridin-3-yl)-2-(1-(2-hydroxyethyl)-1H-pyrazol-4-yl)pyrazolo[5,1-b]thiazole-7-carboxamide] has an IC50 [1] of 0.4 nM and an IC50 [2] of 4.2 nM.

In the case of Cc1ncc(NC(=O)CN2CC3CC(C2)O3)cc1NC(=O)c1cnn2cc(-c3cnn(C)c3)sc12 [Example 45, N-(5-(2-(6-oxa-3-azabicyclo[3.1.1]heptan-3-yl)acetamido)-2-methylpyridin-3-yl)-2-(1-methyl-1H-pyrazol-4-yl)pyrazolo[5,1-b]thiazole-7-carboxamide], the IC50 [1] is reported as 1 nM and the IC50 [2] is reported as 31 nM.

Cc1ncc(NC(=O)CN2CCS(=O)(=O)CC2)cc1NC(=O)c1cnn2cc(-c3cnn(C)c3)sc12 [Example 59, N-(5-(2-(1,1-dioxidothiomorpholino)acetamido)-2-methylpyridin-3-yl)-2-(1-methyl-1H-pyrazol-4-yl)pyrazolo[5,1-b]thiazole-7-carboxamide] gave an IC50 [1] of 2.1 nM and an IC50 [2] of 93.9 nM.

Compound Cc1ncc(NC(=O)CN2[C@H](C)COC[C@@H]2C)cc1NC(=O)c1cnn2cc(-c3cnn(C)c3)sc12 [Example 71, N-(5-(2-((3S,5R)-3,5-dimethylmorpholino)acetamido)-2-methylpyridin-3-yl)-2-(1-methyl-1H-pyrazol-4-yl)pyrazolo[5,1-b]thiazole-7-carboxamide] has an IC50 [1] of 2.9 nM and an IC50 [2] of 47.9 nM.

Cc1ncc(C(=O)NCCN2CCCC23CC3)cc1NC(=O)c1cnn2cc(-c3cnn(C)c3)sc12 [Example 2, N-(5-((2-(4-azaspiro[2.4]heptan-4-yl)ethyl)carbamoyl)-2-methylpyridin-3-yl)-2-(1-methyl-1H-pyrazol-4-yl)pyrazolo[5,1-b]thiazole-7-carboxamide] gave an IC50 [1] of 0.7 nM and an IC50 [2] of 11.5 nM.

For Cc1ncc(NC(=O)CN2CCn3ccnc3C2)cc1NC(=O)c1cnn2cc(-c3cnn(C)c3)sc12 [Example 75, N-(5-(2-(5,6-dihydroimidazo[1,2-a]pyrazin-7 (8H)-yl)acetamido)-2-methylpyridin-3-yl)-2-(1-methyl-1H-pyrazol-4-yl)pyrazolo[5,1-b]thiazole-7-carboxamide], the IC50 [1] was 4.1 nM and the IC50 [2] was 47 nM.

COCCn1cc(-c2cn3ncc(C(=O)Nc4cc(NC(=O)CCN5CC(C)(C)C5)cnc4C)c3s2)cn1 [Example 93, N-(5-(3-(3,3-dimethylazetidin-1-yl)propanamido)-2-methylpyridin-3-yl)-2-(1-(2-methoxyethyl)-1H-pyrazol-4-yl)pyrazolo[5,1-b]thiazole-7-carboxamide] gave an IC50 [1] of 0.9 nM and an IC50 [2] of 29.1 nM.

For Cc1ncc(NC(=O)CN2CCO[C@H](C)C2)cc1NC(=O)c1cnn2cc(-c3cnn(C)c3)sc12 [Example 54, (R)-2-(1-methyl-1H-pyrazol-4-yl)-N-(2-methyl-5-(2-(2-methylmorpholino)acetamido)pyridin-3-yl)pyrazolo[5,1-b]thiazole-7-carboxamide], the IC50 [1] was 0.5 nM and the IC50 [2] was 12.8 nM.

COCCn1cc(-c2cn3ncc(C(=O)Nc4cc(NC(=O)CCN5C[C@@H]6CC[C@H]5C6)cnc4C)c3s2)cn1 [Example 92, N-(5-(3-((1S,4R)-2-azabicyclo[2.2.1]heptan-2-yl)propanamido)-2-methylpyridin-3-yl)-2-(1-(2-methoxyethyl)-1H-pyrazol-4-yl)pyrazolo[5,1-b]thiazole-7-carboxamide] showed an IC50 [1] of 0.5 nM and an IC50 [2] of 7.2 nM.

For Cc1ncc(NC(=O)CN2CCC3(CC2)COC3)cc1NC(=O)c1cnn2cc(-c3cnn(C)c3)sc12 [Example 46, N-(5-(2-(2-oxa-7-azaspiro[3.5]nonan-7-yl)acetamido)-2-methylpyridin-3-yl)-2-(1-methyl-1H-pyrazol-4-yl)pyrazolo[5,1-b]thiazole-7-carboxamide], the IC50 [1] was 3 nM and the IC50 [2] was 89 nM.

For COCCn1cc(-c2cn3ncc(C(=O)Nc4cc(NC(=O)C5(CN6CCCC6(C)C)CC5)cnc4C)c3s2)cn1 [Example 487, N-(5-(1-((2,2-dimethylpyrrolidin-1-yl)methyl)cyclopropane-carboxamido)-2-methylpyridin-3-yl)-2-(1-(2-methoxyethyl)-1H-pyrazol-4-yl)pyrazolo[5,1-b]thiazole-7-carboxamide], the IC50 [1] was 7.7 nM and the IC50 [2] was 197 nM.
